The values that follow come from patent publication US8435978B2, “Substituted sulfonamide compounds” (Gruenenthal GmbH, priority 2006, dated 2013).

For assay [1], the target named is T1, human B1R receptor (Homo sapiens, UniProt P46663).
T1 construct: host or cells: CHO K1 cells (Chinese hamster ovary), stably transfected
T1 sequence (P46663 1-353): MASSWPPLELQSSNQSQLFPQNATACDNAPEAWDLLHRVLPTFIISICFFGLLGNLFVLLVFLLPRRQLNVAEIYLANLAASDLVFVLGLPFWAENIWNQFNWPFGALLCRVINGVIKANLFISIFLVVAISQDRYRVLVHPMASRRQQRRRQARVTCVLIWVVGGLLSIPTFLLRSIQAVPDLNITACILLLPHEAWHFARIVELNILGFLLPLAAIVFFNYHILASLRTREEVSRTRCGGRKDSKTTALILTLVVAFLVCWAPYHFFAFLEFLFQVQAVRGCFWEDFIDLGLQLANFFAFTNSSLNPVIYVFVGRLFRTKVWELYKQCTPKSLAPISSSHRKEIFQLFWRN
Put plainly: Functional study on the bradykinin receptor 1 (B1R), FLIPR Ca2+ assay, hB1R cells. The conditions noted are these: agonist Lys-Des-Arg9-bradykinin 0.5 nM, % inhibition compared with the maximum achievable inhibition; for inhibition at 10 µM: CHO-K1, test substance 10 μM, read-out: B1R Antagonism, human [10 μM] % Inhibition; for B1R Antagonism, human [10 μM] % Inhibition: test substance 10 μM, hB1R CHO K1 cells. Type of assay: cell-based. A digest of the protocol: (§1)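 CHO K1 cells stably expressing human or rat B1R, Fluo-4-loaded; test compound 10 μM added first (activation % vs agonist), then after 10 min 0.5 nM Lys-Des-Arg9-bradykinin (human) or 100 nM Des-Arg9-bradykinin (rat). Ca2+ peak fluorescence by FLIPR; % inhibition relative to maximum achievable inhibition.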

Assay [2] deals with T2, B1R receptor of the rat (Rattus norvegicus, UniProt P97583).
T2 construct: host or cells: CHO K1 cells (Chinese hamster ovary), stably transfected
T2 sequence (P97583 1-337): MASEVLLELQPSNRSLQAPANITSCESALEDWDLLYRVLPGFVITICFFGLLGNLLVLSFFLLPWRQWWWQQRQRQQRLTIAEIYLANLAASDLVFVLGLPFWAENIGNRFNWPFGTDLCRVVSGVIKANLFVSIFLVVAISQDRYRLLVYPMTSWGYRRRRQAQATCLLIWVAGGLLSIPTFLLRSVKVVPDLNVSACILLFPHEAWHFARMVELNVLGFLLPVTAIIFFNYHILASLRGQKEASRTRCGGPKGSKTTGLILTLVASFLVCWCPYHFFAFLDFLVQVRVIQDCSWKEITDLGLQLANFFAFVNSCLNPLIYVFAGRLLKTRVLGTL
Put plainly: Functional study on the bradykinin receptor 1 (B1R), FLIPR Ca2+ assay, rB1R cells. Type of assay: cell-based. The settings on record: agonist Des-Arg9-bradykinin 100 nM, % inhibition compared with the maximum achievable inhibition; for inhibition at 10 µM: CHO-K1, test substance 10 μM, read-out: B1R Antagonism, rat [10 μM] % Inhibition; for B1R Antagonism, rat [10 μM] % Inhibition: test substance 10 μM, rB1R CHO K1 cells. A digest of the protocol:
as §1

Molecules are shown by their SMILES.

For orientation: inhibition means the drop in the measured response relative to a control, in per cent. In the case of `O=C(COCC1CCCN1S(=O)(=O)c1ccc(Cl)c(Cl)c1)N1CCN(Cc2ccc3c(c2)OCO3)CC1` (centres unmarked) [Example 44, 1-(4-benzo[1,3]dioxol-5-ylmethyl-piperazin-1-yl)-2-[1-(3,4-dichloro-phenylsulfonyl)-pyrrolidin-2-ylmethoxy]-ethanone], the inhibition at 10 µM came out at 69.6% in assay [1] and 0% in assay [2].
The like results for `CN1CCN(Cc2ccc(CNC(=O)COCC3CCCN3S(=O)(=O)c3c(Cl)cc(Cl)cc3Cl)cc2)CC1` (centres unmarked) [Example 45, N-[4-(4-methyl-piperazin-1-ylmethyl)-benzyl]-2-[1-(2,4,6-trichloro-phenylsulfonyl)-pyrrolidin-2-ylmethoxy]-acetamide] were, in that order, 69.1% and 92.4%.
With `COCCN1CCN(C(=O)COCC2CCCCN2S(=O)(=O)c2ccc(Cl)c(Cl)c2)CC1` (centres unmarked) [Example 46, 2-[1-(3,4-dichloro-phenylsulfonyl)-piperidin-2-ylmethoxy]-1-[4-(2-methoxy-ethyl)-piperazin-1-yl]-ethanone], the inhibition at 10 µM in assay [1] came to 68.2%; in assay [2] it was 0%.
As to `CN(C(=O)COCC1CCCCN1S(=O)(=O)c1cccc2ccccc12)C(CN1CCOCC1)c1ccccc1` (centres unmarked) [Example 47, N-methyl-N-(2-morpholin-4-yl-1-phenyl-ethyl)-2-[1-(naphthyl-1-sulfonyl)-piperidin-2-ylmethoxy]-acetamide], in assay [1], the “B1R Antagonism, human [10 μM] % Inhibition” value is recorded as 68.07%. The “B1R Antagonism, rat [10 μM] % Inhibition” value in assay [2] amounted to 48.84%.
With `CCN(CC)CCN(CCN(CC)CC)C(=O)COCC1Cc2ccccc2CN1S(=O)(=O)c1c(C)cc(C)cc1C` (centres unmarked) [Example 48, N,N-bis-(2-diethylamino-ethyl)-2-[2-(2,4,6-trimethyl-phenylsulfonyl)-1,2,3,4-tetra-hydro-isoquinolin-3-ylmethoxy]-acetamide], the inhibition at 10 µM stood at 66.6% in assay [1] and 30.5% in assay [2].
As to `O=C(COCC1CCCN1S(=O)(=O)c1c(Cl)cc(Cl)cc1Cl)NCc1ccc(CN2CCOCC2)cc1` (centres unmarked) [Example 49, N-(4-morpholin-4-ylmethyl-benzyl)-2-[1-(2,4,6-trichloro-phenylsulfonyl)-pyrrolidin-2-ylmethoxy]-acetamide], the inhibition at 10 µM stood at 65.9% in assay [1] and 92.3% in assay [2].
As to `Cc1cc(C)c(S(=O)(=O)N2Cc3ccccc3CC2COCC(=O)NCc2cccc(N3CCOCC3)c2)c(C)c1` (centres unmarked) [Example 50, N-(3-morpholin-4-yl-benzyl)-2-[2-(2,4,6-trimethyl-phenylsulfonyl)-1,2,3,4-tetrahydro-isoquinolin-3-ylmethoxy]-acetamide], the inhibition at 10 µM in assay [1] was determined as 65.7%; in assay [2], 50.3%.
Take `O=C(COCC1Cc2ccccc2CN1S(=O)(=O)c1ccc(Cl)cc1Cl)N1CCCC1CN1CCCCC1` (centres unmarked) [Example 51, 2-[2-(2,4-dichloro-phenylsulfonyl)-1,2,3,4-tetrahydro-isoquinolin-3-ylmethoxy]-1-(2-piperidin-1-ylmethyl-pyrrolidin-1-yl)-ethanone]: the inhibition at 10 µM is 65.1% in assay [1] and 87.9% in assay [2].
For the molecule `COc1ccc(S(=O)(=O)N2CCCCC2COCC(=O)N2CCC(CCN3CCCCC3)CC2)cc1` (centres unmarked) [Example 52, 2-((1-(4-methoxyphenylsulfonyl)piperidin-2-yl)methoxy)-1-(4-(2-(piperidin-1-yl)-ethyl)piperidin-1-yl)ethanone], the results for the inhibition at 10 µM in assay [1] and in assay [2] were 65% and 92.8%, respectively.
The like results for `COc1cccc(N2CCN(C(=O)COCC3CCCCN3S(=O)(=O)c3ccc(Cl)c(Cl)c3)CC2)c1` (centres unmarked) [Example 53, 2-[1-(3,4-dichloro-phenylsulfonyl)-piperidin-2-ylmethoxy]-1-[4-(3-methoxy-phenyl)-piperazin-1-yl]-ethanone] were, in that order, 64.8% and 0%.
The like results for `O=C(COCC1CCCN1S(=O)(=O)c1ccc(Cl)c(Cl)c1)N1CCN(CC2CCCCC2)CC1` (centres unmarked) [Example 54, 1-(4-cyclohexylmethyl-piperazin-1-yl)-2-[1-(3,4-dichloro-phenylsulfonyl)-pyrrolidin-2-ylmethoxy]-ethanone] were, in that order, 63.8% and 0%.
In the same order, the values of `COc1cc(C)c(S(=O)(=O)N2CCCC2COCC(=O)NCc2ccc(CN3CCOCC3)cc2)c(C)c1` (centres unmarked) [Example 55, 2-[1-(4-methoxy-2,6-dimethyl-phenylsulfonyl)-pyrrolidin-2-ylmethoxy]-N-(4-morpholin-4-ylmethyl-benzyl)-acetamide] are 63.2% and 88.8%.
For the molecule `O=C(COCC1CCCCN1S(=O)(=O)c1ccc(Cl)c(Cl)c1)N1CCN(c2ccccc2)CC1` (centres unmarked) [Example 56, 2-[1-(3,4-dichloro-phenylsulfonyl)-piperidin-2-ylmethoxy]-1-(4-phenyl-piperazin-1-yl)-ethanone], the inhibition at 10 µM in assay [1] stood at 62.7%; in assay [2] it was 0%.
`O=C(COCC1CCCCN1S(=O)(=O)c1ccc(Cl)c(Cl)c1)N1CCC(Cc2ccccc2)CC1` (centres unmarked) [Example 57, 1-(4-benzyl-piperidin-1-yl)-2-[1-(3,4-dichloro-phenylsulfonyl)-piperidin-2-ylmethoxy]-ethanone]: the inhibition at 10 µM is 62.4% in assay [1] and 0% in assay [2].
The like results for `CN(C)CCCN1CCN(C(=O)COCC2CCCCN2S(=O)(=O)c2cccc(C(F)(F)F)c2)CC1` (centres unmarked) [Example 58, 1-[4-(3-dimethylamino-propyl)-piperazin-1-yl]-2-[1-(3-trifluoromethyl-phenylsulfonyl)-piperidin-2-ylmethoxy]-ethanone] were, in that order, 62.2% and 10.2%.
In the same order, the values of `O=C(COCC1CCCCN1S(=O)(=O)c1ccc(Cl)c(Cl)c1)N1CCN(c2ccc(F)cc2)CC1` (centres unmarked) [Example 59, 2-[1-(3,4-dichloro-phenylsulfonyl)-piperidin-2-ylmethoxy]-1-[4-(4-fluoro-phenyl)-piperazin-1-yl]-ethanone] are 61.5% and 0%.
In the case of `COc1cc(C)c(S(=O)(=O)N2CCCC2COCC(=O)NCc2ccc(N3CCCCC3)cc2)c(C)c1` (centres unmarked) [Example 60, 2-[1-(4-methoxy-2,6-dimethyl-phenylsulfonyl)-pyrrolidin-2-ylmethoxy]-N-(4-piperidin-1-yl-benzyl)-acetamide], the inhibition at 10 µM was determined as 59.9% in assay [1] and 109% in assay [2].
For `O=C(COCC1CCCCN1S(=O)(=O)c1cccc2ccccc12)NCc1ccc(CN2CCOCC2)cc1` (centres unmarked) [Example 61, N-(4-morpholin-4-ylmethyl-benzyl)-2-[1-(naphthyl-1-sulfonyl)-piperidin-2-ylmethoxy]-acetamide], the “B1R Antagonism, human [10 μM] % Inhibition” value in assay [1] worked out at 59.7%. For the same molecule, in assay [2], the “B1R Antagonism, rat [10 μM] % Inhibition” value is given as 30.54%.
Turning to `CN1CCC(N2CCN(C(=O)COCC3CCCN3S(=O)(=O)c3ccc(Cl)c(Cl)c3)CC2)CC1` (centres unmarked) [Example 62, 2-[1-(3,4-dichloro-phenylsulfonyl)-pyrrolidin-2-ylmethoxy]-1-[4-(1-methyl-piperidin-4-yl)-piperazin-1-yl]-ethanone], the inhibition at 10 µM came to 59.6% in assay [1] and 34% in assay [2].
In the case of `CN(C)c1ccc(C2CCCCCN2C(=O)COCC2CCCCN2S(=O)(=O)c2cccc3ccccc23)cc1` (centres unmarked) [Example 63, 1-[2-(4-dimethylamino-phenyl)-azepan-1-yl]-2-[1-(naphthyl-1-sulfonyl)-piperidin-2-ylmethoxy]-ethanone], the “B1R Antagonism, human [10 μM] % Inhibition” value in assay [1] was determined as 58.57%. The “B1R Antagonism, rat [10 μM] % Inhibition” value in assay [2] came to 26.41%.
The like results for `O=C(COCC1CCCCN1S(=O)(=O)c1cccc2ccccc12)N1CCCC1CN1CCCCC1` (centres unmarked) [Example 64, 2-[1-(naphthyl-1-sulfonyl)-piperidin-2-ylmethoxy]-1-(2-piperidin-1-ylmethyl-pyrrolidin-1-yl)-ethanone] were, in that order, 57.92% and 25.48%.
Consider `O=C(COCC1Cc2ccccc2CN1S(=O)(=O)c1ccc(Cl)cc1Cl)N1CCC(N2CCOCC2)CC1` (centres unmarked) [Example 65, 2-((2-(2,4-dichlorophenylsulfonyl)-1,2,3,4-tetrahydroisoquinolin-3-yl)methoxy)-1-(4-morpholinopiperidin-1-yl)ethanone], for which the figures for the inhibition at 10 µM in assay [1] and in assay [2] were 55.4% and 93.2%, respectively.
